Series [1] can be described thus: Octanol-water distribution coefficient (logD pH 7.4) of the labeled tracer. Format: physicochemical. The note with it: n-octanol/PBS pH 7.4, room temperature. Here is the method: Approximately 1 MBq of the labeled tracer was dissolved in 1 mL of a 1:1 mixture (by volumes) of phosphate buffered saline (PBS, pH 7.4) and n-octanol in an Eppendorf tube. After vigorous mixing of the suspension for 3 minutes at room temperature, the vial was centrifuged at 15000 g for 5 minutes (Biofuge 15, Heraus Sepatech, Osterode, Germany) and 100 μL aliquots of both layers were measured in a gamma counter. The experiment was repeated at least six times.

In series [2] the target is T1, SST2 (Homo sapiens, UniProt P30874).
T1 construct: expressed in transfected cells; host or cells: CHO (Chinese hamster ovary) cells
As to the kind of experiment: Determination of IC50: competitive binding against [125I]TOC on SST2-transfected CHO cells. The note with it: [125I]TOC reference radioligand, 60 min room temperature.

Series [3] concerns the target HSA (Homo sapiens, UniProt P02768). As to the kind of experiment: HSA binding by RIAC method (gel filtration, apparent molecular weight). It is filed as in vitro ADME. The note with it: HSA binding as apparent molecular weight, 700 μM HSA in PBS mobile phase. Here is the method:
A gel filtration column Superdex 75 Increase 10/300 GL (GE Healthcare, Uppsala, Sweden) was beforehand calibrated following the producer's recommendations with a commercially available gel filtration calibration kit (GE Healthcare, Buckinghamshire, UK) comprising conalbumin (MW: 75 kDa), ovalbumin (44 kDa), carbonic anhydrase (29 kDa), ribonuclease A (13.7 kDa) and aprotinin (6.5 kDa) as reference proteins of known molecular weight. AMSEC experiments were conducted using a constant flow rate of 0.8 mL/min at rt. A solution of HSA in PBS at physiological concentration (700 μM) was used as the mobile phase. SST2 ligands were labelled as described with molar activities of 10-20 GBq/μmol. Probes of 1.0 MBq of the radioligand were injected directly from the labelling solution. HSA binding was expressed as an apparent molecular weight MW calculated from the retention time of the radioligand using the determined calibration curve.
For evaluation, experimentally determined retention times tR are first converted into elution volumes Ve by multiplying with the flow rate and thereafter converted into partition coefficients Kav following the equation
where V0 is the column void volume (8.027 mL) and Vc is the geometric column volume (24 mL). Using the equation given by the trend line plot of the column calibration
the apparent molecular weight MW is calculated as […]

Where a SMILES comes first, the peptide text is derived from it. Bridges are numbered along the chain shown (N, C = ends). [ ]: non-standard residue; d: D form. The star is where a group is joined. ξ: configuration not given here. Benzoyl(4-SiFtBu2) = CC(C)(C)[Si](F)(c1ccc(C(=O)*)cc1)C(C)(C)C; X1 = CC(C)(C)[Si](F)(c1ccc(C[N+](C)(C)CC(=O)*)cc1)C(C)(C)C; DO3AM = NC(=O)CN1CCN(CC(N)=O)CCN(CC(=O)*)CCN(CC(N)=O)CC1; ξW = NC(Cc1c[nH]c2ccccc12)C(=O)O; dDap = NC[C@@H](N)C(=O)O; ξF = NC(Cc1ccccc1)C(=O)O; ξD = NC(CC(=O)O)C(=O)O; ξDap = NCC(N)C(=O)O; ξC = NC(CS)C(=O)O

T1 sequence (P30874 whole entry, species assumed): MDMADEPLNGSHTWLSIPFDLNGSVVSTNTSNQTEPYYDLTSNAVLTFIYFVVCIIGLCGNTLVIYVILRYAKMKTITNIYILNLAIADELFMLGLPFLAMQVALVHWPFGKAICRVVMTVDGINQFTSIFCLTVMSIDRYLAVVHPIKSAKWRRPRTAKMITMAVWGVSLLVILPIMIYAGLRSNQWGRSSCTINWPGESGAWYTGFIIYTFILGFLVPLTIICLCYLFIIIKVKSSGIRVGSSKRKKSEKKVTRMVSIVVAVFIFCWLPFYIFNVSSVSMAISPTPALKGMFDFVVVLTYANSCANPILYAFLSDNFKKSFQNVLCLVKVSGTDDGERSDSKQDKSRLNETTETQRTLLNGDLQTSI
Sequence of HSA (P02768 25-609): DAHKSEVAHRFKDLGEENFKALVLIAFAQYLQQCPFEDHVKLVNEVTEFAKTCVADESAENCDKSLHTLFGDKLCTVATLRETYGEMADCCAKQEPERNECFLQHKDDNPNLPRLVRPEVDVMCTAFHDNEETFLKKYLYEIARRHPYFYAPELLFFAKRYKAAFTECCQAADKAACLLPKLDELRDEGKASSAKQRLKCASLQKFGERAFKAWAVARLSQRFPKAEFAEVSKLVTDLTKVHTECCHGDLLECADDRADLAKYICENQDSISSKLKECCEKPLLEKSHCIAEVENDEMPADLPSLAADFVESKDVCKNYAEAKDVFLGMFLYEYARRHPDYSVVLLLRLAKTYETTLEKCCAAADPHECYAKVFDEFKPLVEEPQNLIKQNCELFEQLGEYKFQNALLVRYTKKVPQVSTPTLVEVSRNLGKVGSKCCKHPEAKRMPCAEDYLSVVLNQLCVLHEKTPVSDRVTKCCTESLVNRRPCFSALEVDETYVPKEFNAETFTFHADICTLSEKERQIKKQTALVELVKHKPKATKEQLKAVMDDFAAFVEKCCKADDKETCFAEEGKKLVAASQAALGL

For `C[C@@H](O)[C@H](NC(=O)C1CSSCC(NC(=O)C(Cc2ccccc2)NC(=O)CNC(=O)CNC(=O)[C@@H](CC(=O)O)NC(=O)C(CC(=O)O)NC(=O)[C@@H](CNC(=O)c2ccc([Si](F)(C(C)(C)C)C(C)(C)C)cc2)NC(=O)CN2CCN(CC(=O)O)CCN(CC(=O)O)CCN(CC(=O)O)CC2)C(=O)N[C@@H](Cc2ccc(O)cc2)C(=O)NC(Cc2c[nH]c3ccccc23)C(=O)N[C@@H](CCCCN)C(=O)N[C@@H]([C@@H](C)O)C(=O)N1)C(=O)O` (some centres unmarked) (natGa complex, metal not drawn) [[Ga]8], the “LogDpH=7.4” value in series [1] is recorded as −2.02 ± 0.04. Also, in series [2], the IC50 (as a rule, the midpoint of a concentration-inhibition curve) is 58.5 ± 10.8 nM.
Take `C[C@@H](O)[C@H](NC(=O)C1CSSCC(NC(=O)C(Cc2ccccc2)NC(=O)CNC(=O)CNC(=O)[C@@H](CC(=O)O)NC(=O)C(CC(=O)O)NC(=O)[C@@H](CNC(=O)CN2CCN(CC(=O)O)CCN(CC(=O)O)CCN(CC(=O)O)CC2)NC(=O)C[N+](C)(C)Cc2ccc([Si](F)(C(C)(C)C)C(C)(C)C)cc2)C(=O)N[C@@H](Cc2ccc(O)cc2)C(=O)NC(Cc2c[nH]c3ccccc23)C(=O)N[C@@H](CCCCN)C(=O)N[C@@H]([C@@H](C)O)C(=O)N1)C(=O)O` (some centres unmarked) [[Ga]24]: the “LogDpH=7.4” value in series [1] is reported as −1.92 ± 0.03. Moreover, the HSA in series [3] is recorded as 8.77 kDa.
Take `C[C@@H](O)[C@H](NC(=O)C1CSSCC(NC(=O)C(Cc2ccccc2)NC(=O)CNC(=O)CNC(=O)CNC(=O)C(CC(=O)O)NC(=O)[C@@H](CC(=O)O)NC(=O)C(CCCCN)NC(=O)[C@@H](CNC(=O)CN2CCN(CC(=O)O)CCN(CC(=O)O)CCN(CC(=O)O)CC2)NC(=O)C[N+](C)(C)Cc2ccc([Si](F)(C(C)(C)C)C(C)(C)C)cc2)C(=O)N[C@@H](Cc2ccc(O)cc2)C(=O)NC(Cc2c[nH]c3ccccc23)C(=O)N[C@@H](CCCCN)C(=O)N[C@@H]([C@@H](C)O)C(=O)N1)C(=O)O` (some centres unmarked) (natGa complex, metal not drawn) [[Ga]57]: in series [1], the “LogDpH=7.4” value is given as −2.25 ± 0.14. For the same compound, in series [2], the IC50 came to 4.74 ± 0.22 nM.
Taken in the same sequence, the figures for `CC(O)C(NC(=O)C1CSSCC(NC(=O)C(Cc2ccccc2)NC(=O)CNC(=O)CNC(=O)CNC(=O)[C@@H](CCCN)NC(=O)[C@@H](CCCN)NC(=O)C(CNC(=O)CN2CCN(CC(=O)O)CCN(CC(=O)O)CCN(CC(=O)O)CC2)NC(=O)C[N+](C)(C)Cc2ccc([Si](F)(C(C)(C)C)C(C)(C)C)cc2)C(=O)N[C@@H](Cc2ccc(O)cc2)C(=O)NC(Cc2c[nH]c3ccccc23)C(=O)N[C@@H](CCCCN)C(=O)N[C@@H]([C@@H](C)O)C(=O)N1)C(=O)O` (some centres unmarked) (natGa complex, metal not drawn) [[Ga]55] were −1.69 ± 0.04 and 4.1 ± 0.54 nM.
With `C[C@@H](O)[C@H](NC(=O)C1CSSCC(NC(=O)C(Cc2ccccc2)NC(=O)CNC(=O)CNC(=O)CNC(=O)C(CC(=O)O)NC(=O)[C@@H](CC(=O)O)NC(=O)C(CCC(=O)O)NC(=O)[C@@H](CNC(=O)C[N+](C)(C)Cc2ccc([Si](F)(C(C)(C)C)C(C)(C)C)cc2)NC(=O)CN2CCN(CC(=O)O)CCN(CC(=O)O)CCN(CC(=O)O)CC2)C(=O)N[C@@H](Cc2ccc(O)cc2)C(=O)NC(Cc2c[nH]c3ccccc23)C(=O)N[C@@H](CCCCN)C(=O)N[C@@H]([C@@H](C)O)C(=O)N1)C(=O)O` (some centres unmarked) [[Ga]47], the “LogDpH=7.4” value in series [1] is −2.30 ± 0.02. In series [3], the HSA was determined as 7.66 kDa.
Turning to `C[C@@H](O)[C@H](NC(=O)C1CSSCC(NC(=O)C(Cc2ccccc2)NC(=O)CNC(=O)CNC(=O)[C@@H](CC(=O)O)NC(=O)C(CC(=O)O)NC(=O)[C@@H](CNC(=O)CN2CCN(CC(N)=O)CCN(CC(N)=O)CCN(CC(N)=O)CC2)NC(=O)C(CN)NC(=O)c2ccc([Si](F)(C(C)(C)C)C(C)(C)C)cc2)C(=O)N[C@@H](Cc2ccc(O)cc2)C(=O)NC(Cc2c[nH]c3ccccc23)C(=O)N[C@@H](CCCCN)C(=O)N[C@@H]([C@@H](C)O)C(=O)N1)C(=O)O` (some centres unmarked) [Ligand 36] ({Benzoyl(4-SiFtBu2)}-[ξDap][dDap](DO3AM)[ξD][dD]GG[ξF][ξC]Y[ξW]KT[ξC]T-OH; disulfide 8-13), the “LogDpH=7.4” value in series [1] (listed as 36) is given as −1.41 ± 0.07. In series [2], the IC50 turned out to be 7.05 ± 1.61 nM.
For `C[C@@H](O)[C@H](NC(=O)C1CSSCC(NC(=O)C(Cc2ccccc2)NC(=O)CNC(=O)CNC(=O)[C@@H](CC(=O)O)NC(=O)C(CC(=O)O)NC(=O)[C@@H](CNC(=O)c2ccc([Si](F)(C(C)(C)C)C(C)(C)C)cc2)NC(=O)CCC(C(=O)O)N2CCN(CC(=O)O)CCN(CC(=O)O)CCN(CC(=O)O)CC2)C(=O)N[C@@H](Cc2ccc(O)cc2)C(=O)NC(Cc2c[nH]c3ccccc23)C(=O)N[C@@H](CCCCN)C(=O)N[C@@H]([C@@H](C)O)C(=O)N1)C(=O)O` (some centres unmarked) (natGa complex, metal not drawn) [[Ga]6], the “LogDpH=7.4” value in series [1] is listed as −2.15 ± 0.09. For the same compound, the IC50 in series [2] was determined as 149 ± 20.3 nM.
Regarding `C[C@@H](O)[C@H](NC(=O)C1CSSCC(NC(=O)C(Cc2ccccc2)NC(=O)CNC(=O)CNC(=O)[C@@H](CC(=O)O)NC(=O)C(CC(=O)O)NC(=O)[C@@H](CNC(=O)CN2CCN(CC(=O)O)CCN(CC(=O)O)CCN(CC(=O)O)CC2)NC(=O)c2ccc([Si](F)(C(C)(C)C)C(C)(C)C)cc2)C(=O)N[C@@H](Cc2ccc(O)cc2)C(=O)NC(Cc2c[nH]c3ccccc23)C(=O)N[C@@H](CCCCN)C(=O)N[C@@H]([C@@H](C)O)C(=O)N1)C(=O)O` (some centres unmarked) (natGa complex, metal not drawn) [[Ga]9], the “LogDpH=7.4” value in series [1] was −2.02 ± 0.04. Further, the IC50 in series [2] came to 63.3 ± 1.75 nM.
Taken in the same sequence, the figures for `C[C@@H](O)[C@@H]1NC(=O)[C@H](CCCCN)NC(=O)C(Cc2ccc(NC(N)=O)cc2)NC(=O)[C@H](Cc2ccc(NC(=O)C3CC(=O)NC(=O)N3)cc2)NC(=O)[C@H](NC(=O)[C@H](Cc2ccc(Cl)cc2)NC(=O)CNC(=O)CNC(=O)CNC(=O)C(CC(=O)O)NC(=O)[C@@H](CC(N)=O)NC(=O)C(CNC(=O)CN2CCN(CC(=O)O)CCN(CC(=O)O)CCN(CC(=O)O)CC2)NC(=O)C[N+](C)(C)Cc2ccc([Si](F)(C(C)(C)C)C(C)(C)C)cc2)CSSCC(C(=O)NC(Cc2ccc(O)cc2)C(N)=O)NC1=O` (some centres unmarked) (natGa complex, metal not drawn) [[Ga]59] were −2.14 ± 0.03 and 23.7 ± 1.5 nM.
Taken in the same sequence, the figures for `C[C@@H](O)[C@H](NC(=O)C1CSSCC(NC(=O)C(Cc2ccccc2)NC(=O)CNC(=O)CNC(=O)CNC(=O)C(CC(=O)O)NC(=O)[C@@H](CC(=O)O)NC(=O)C(CNC(=O)CN2CCN(CC(N)=O)CCN(CC(N)=O)CCN(CC(N)=O)CC2)NC(=O)C[N+](C)(C)Cc2ccc([Si](F)(C(C)(C)C)C(C)(C)C)cc2)C(=O)N[C@@H](Cc2ccc(O)cc2)C(=O)NC(Cc2c[nH]c3ccccc23)C(=O)N[C@@H](CCCCN)C(=O)N[C@@H]([C@@H](C)O)C(=O)N1)C(=O)O` (some centres unmarked) [[Pb]54] (X1-[ξDap](DO3AM)[dD][ξD]GGG[ξF][ξC]Y[ξW]KT[ξC]T-OH; disulfide 8-13) were −1.86 ± 0.04 and 4.24 ± 0.68 nM.
Taken in the same sequence, the figures for `CC(O)C(NC(=O)C1CSSCC(NC(=O)C(Cc2ccccc2)NC(=O)CNC(=O)CNC(=O)CNC(=O)C(CC(N)=O)NC(=O)[C@@H](CC(N)=O)NC(=O)C(CNC(=O)CN2CCN(CC(=O)O)CCN(CC(=O)O)CCN(CC(=O)O)CC2)NC(=O)C[N+](C)(C)Cc2ccc([Si](F)(C(C)(C)C)C(C)(C)C)cc2)C(=O)N[C@@H](Cc2ccc(O)cc2)C(=O)NC(Cc2c[nH]c3ccccc23)C(=O)N[C@@H](CCCCN)C(=O)N[C@@H]([C@@H](C)O)C(=O)N1)C(=O)O` (some centres unmarked) (natGa complex, metal not drawn) [[Ga]56] were −1.51 ± 0.03 and 4 ± 0.34 nM.
As for `C[C@@H](O)[C@H](NC(=O)C1CSSCC(NC(=O)C(Cc2ccccc2)NC(=O)CNC(=O)CNC(=O)CNC(=O)C(CC(=O)O)NC(=O)[C@@H](CC(=O)O)NC(=O)C(CCCNC(N)=O)NC(=O)[C@@H](CNC(=O)CN2CCN(CC(=O)O)CCN(CC(=O)O)CCN(CC(=O)O)CC2)NC(=O)C[N+](C)(C)Cc2ccc([Si](F)(C(C)(C)C)C(C)(C)C)cc2)C(=O)N[C@@H](Cc2ccc(O)cc2)C(=O)NC(Cc2c[nH]c3ccccc23)C(=O)N[C@@H](CCCCN)C(=O)N[C@@H]([C@@H](C)O)C(=O)N1)C(=O)O` (some centres unmarked) (natGa complex, metal not drawn) [[Ga]58], the “LogDpH=7.4” value in series [1] is given as −2.31 ± 0.04. For the same compound, the IC50 in series [2] was determined as 4.41 ± 0.81 nM.
Taken in the same sequence, the figures for `C[C@@H](O)[C@H](NC(=O)C1CSSCC(NC(=O)C(Cc2ccccc2)NC(=O)CNC(=O)CNC(=O)CNC(=O)C(CC(=O)O)NC(=O)[C@@H](CC(=O)O)NC(=O)C(CNC(=O)CN2CCN(CC(=O)O)CCN(CC(=O)O)CCN(CC(=O)O)CC2)NC(=O)CNC(=O)C[N+](C)(C)Cc2ccc([Si](F)(C(C)(C)C)C(C)(C)C)cc2)C(=O)N[C@@H](Cc2ccc(O)cc2)C(=O)NC(Cc2c[nH]c3ccccc23)C(=O)N[C@@H](CCCCN)C(=O)N[C@@H]([C@@H](C)O)C(=O)N1)C(=O)O` (some centres unmarked) (natGa complex, metal not drawn) [[Ga]60] were −2.24 ± 0.05 and 4.15 ± 0.79 nM.
